According to article PMC12829161 (BMC Microbiology, 2025):
Counter-ions that a name gives are not always drawn. Bridge positions count the residues as written; N and C are the ends. Square brackets hold non-standard residues; d marks the D form. Peptide text beside a SMILES is read from it. * marks the point of attachment. X1 = CC[C@H](C)CCCCC(=O)*; Dab = NCC[C@H](N)C(=O)O

Key:
Format in all cases: cell-based, Pseudomonas aeruginosa
PA14 biofilm [1] = system: PA14 biofilm
PAO1 biofilm [2] = system: PAO1 biofilm
PA14 biofilm [3] = system: PA14 biofilm; remark: listed apart in the source
PAO1 biofilm [4] = system: PAO1 biofilm; remark: listed apart in the source

CC[C@H](C)CCCCC(=O)N[C@@H](CCN)C(=O)N[C@H](C(=O)N[C@@H](CCN)C(=O)N[C@H]1CCNC(=O)[C@H]([C@@H](C)O)NC(=O)[C@H](CCN)NC(=O)[C@H](CCN)NC(=O)[C@H](CC(C)C)NC(=O)[C@@H](Cc2ccccc2)NC(=O)[C@H](CCN)NC1=O)[C@@H](C)O [Polymyxin B, Polymyxin B sulfate] (X1-[Dab]T[Dab][Dab][Dab][dF]L[Dab][Dab]T; lactam 4-C (inferred); N-terminus assumed)
Biofilm inhibition (CV) at sub-MICs and MICs vs untreated control (PA14 biofilm [1]): no significant biofilm inhibition
Biofilm viability (TTC), % of untreated control (PA14 biofilm [1]): approximately 6 (±6) %
Concentration at which total bacterial growth (OD600) is significantly inhibited (PA14 biofilm [1]): 2 µg/mL
Increase in bacterial cells (total growth, OD600) (PA14 biofilm [1]): No statistically significant increase
Biofilm viability (TTC), % of untreated control (PAO1 biofilm [2]): 65 (± 20) %
Concentration at which total bacterial growth (OD600) is significantly inhibited (PAO1 biofilm [2]): 4 µg/mL
Increase in biofilm mass (CV) vs untreated control (PAO1 biofilm [2]): over 200%
Total bacterial growth (OD600), % of untreated control (PAO1 biofilm [2]): approximately 170 (± 48) %
Reduction of total growth (OD600) vs untreated control (PA14 biofilm [3]): at least 70%
Reduction of total growth (OD600) vs untreated control (PAO1 biofilm [4]): at least 70%
